Experiments:
[1] = system: Npm1/Flt3-ITD cKIT+ cells; test: in vitro culture of cKIT+ leukemic cells with 4-OHT (PrestoBlue); format: cell-based, mice; conditions: 72 hours of culture
[2] = system: Npm1GL hematopoietic cells; test: cell number of Dre-induced mutant Npm1 GOLDI-Lox hematopoietic cells after 4-hydroxytamoxifen; format: cell-based, mice; conditions: 7 days post administration
Description: FIGS. 30A-30D show the development of a GOLDI-Lox On/Off Dre/Cre Npm1 Mouse. […] A subset of diseased mice were then treated with tamoxifen (TAM) to induce Cre and lead to reversion of the mutant Npm1 allele back to WT Npm1; measured levels of survival (left panel), cKIT^+ cells in the peripheral blood (middle panel), and WBC counts (right panel) in mice that received TAM compared to vehicle treated mice are shown.
Based on previous data on mutant NPM1, it was expected that cells that lose the mutant Npm1 protein undergo differentiation and eventual apoptosis, ultimately leading to a loss of cell number. To validate the reversion of the mutant Npm1 GOLDI-Lox allele to WT, Dre-induced mutant Npm1 GOLDI-Lox hematopoietic cells were exposed to 4-hydroxytamoxifen (40HT) for Cre-recombinase induction, and cell number measured 7 days post 40HT administration using Cre^−; Npm1GL cells as a negative control.

[3] = system: mice transplanted with UbcCreER-Jak2^RL bone marrow exhibiting active MPN; test: 6-week in vivo drug trial in competitive transplant MPN mice; conditions: for Hct / spleen weights (mean) / mutant cell fraction in LSK stem-cell enriched population (mean): conclusion of 6-week trial; for spleen weights (mean): ruxolitinib 60 mg/kg P.O. twice daily, CHZ868 30 mg/kg P.O. daily; for CD45.2 chimerism in peripheral blood: 6-week trial; for mutant cell fraction in LSK stem-cell enriched population (mean): bone marrow
Description: (§1) Peripheral blood was isolated by submandibular bleeds.
Investigators were not blinded to the identity of mice or samples. Mice were treated for a total of 6 weeks before timed sacrifice and marrow/spleen harvested as above.

[4] = system: DreSTAPL (Dre split with HCV-derived NS3 protease); test: DreStaPL recombination reporter assay in infected Lin- bone marrow (Rosa26:RLTG); format: cell-based, mice; conditions: 10 μM
Description: (§2) FIGS. 27A-27I show inducible recombinases for modeling Flt3 activation.
(§3) MSCV retroviral vectors were transfected with pCL-Eco packaging vector into 293T-17 cells using JetPRIME following the manufacturers protocol (5 ug each, 1:1). Conditioned media was collected 72 hours later and passed through a 0.45 uM filter. Virus was either used fresh or stored at −80 C for later usage. For viral infection in FIG. 4 and Extended Data 8, lineage negative bone marrow was isolated using the Mouse Hematopoietic Progenitor Cell Isolation Kit (StemCell 19856) and plated over retronectin coated 6 or 12 well plates for 2 hours in RPMI+10% FBS supplemented with Penicillin/Streptomycin, 20 ng SCF, 10 ng IL6 and 10 ng IL3. Virus and 100×HEPES was added to the wells, then plates were spun for 1 hour at 800×G at 37 C. Following spin, small molecule ligands used to activate recombinases were added to a final concentration as indicated ethanol (v/v 0.0015%), DMSO (v/v 0.1%), 4-hydroxytamoxifen (4-OHT; 400 nM), trimethoprim (TMP; 1 uM) or grazoprevir (GZV, 10 uM). Cells were harvested for flow cytometric analysis 48 hours post infection. For viral infection followed by transplantation in Extended Data 8, a similar approach was utilized with the following modifications. Donor mice were treated with 5-FU 6 days prior to harvest. […]

[5] = system: DreStaPL-ODC Flt3^GL-ITD mice; test: complete blood counts of DreStaPL-ODC x Flt3^GL-ITD mice after GZV; format: in vivo; conditions: crossed to Flt3^GL-ITD, 6-8 weeks post treatment
Description: Peripheral blood was isolated by submandibular bleeds. Complete blood counts were assessed on a ProCyte by IDEXX. For flow cytometry analysis whole blood was lysed with RBC lysis buffer (Biolegend). […] For whole bone marrow was isolation, the femur, hip and tibia were dissected and cleaned.

[6] = system: UbcCreER-Jak2^RL MPN mice; test: bone marrow myeloid progenitor frequencies by flow cytometry after 7 days of treatment; format: in vivo
Ybx1 = Ybx1 quantitative RT-PCR in cKit+ bone marrow after 7 days of treatment; format: in vivo, mice; conditions: sorted cKit+ cells
Description: Total RNA was extracted from magnetic-bead isolated cKit+ bone marrow (Miltenyi Biotec) using the Direct-zol RNA extraction kit (Zymo) per manufacturers' protocols respectively. Complementary DNA was then reverse transcribed using the Verso cDNA Synthesis kit (ThermoFisher Scientific). Ybx1 expression was evaluated by quantitative reverse-transcription (qRT) PCR using Taqman probes purchased from ThermoFisher (Mm00850878_g1) on the RealPlex thermocycler (ThermoFisher Scientific, Fairlawn, NJ).

Jak2^V617F LSKs and MEPs = conditions: 7 days of treatment; for down-regulation of STAT5 target gene expression, NES: vs MPN control
Description: Lineage-depleted marrow was isolated and then TdTonmato+ (Jak2^RL knock-in) or GFP+ (Jak2^RL knock-out) LSKs and MEPs were sorted on a FACSAria III directly into Trizol LS (Invitrogen) and stored at −80° C. until processing. RNA was subsequently isolated using the Direct-Zol Microprep Kit (Zymo Research, R2061) according to manufacturer's protocol and quantified using the Agilent High Sensitivity RNA ScreenTape (Agilent 5067-5579) on an Agilent 2200 TapeStation. cDNA was generated from 1 ng of input RNA using the SMART-Seq HT Kit (Takara 634455) at half reaction volume followed by Nextera XT (Illumina FC-131-1024) library preparation. cDNA and tagmented libraries were quantified using High Sensitivity D5000 ScreenTape (5067-5592) and High Sensitivity D1000 ScreenTape respectively (5067-5584). Libraries were sequenced on a NovaSeq at the Integrated Genomics Operation (IGO) at MSKCC.
Statistical analyses were performed using Student's t-test (normal distribution) using GraphPad Prism version 6.Oh (GraphPad Software, San Diego, CA). Kaplan-Meier curves were determined using the log-rank test. P<0.05 was considered statistically significant. The number of animals, cells and experimental replication can be found in the respective figure legends. FASTQ files were demultiplexed using a java script from Takara. FASTQ files were mapped and transcript counts were enumerated using STAR (genome version mm10 and transcript version ensembl XX). Counts were input into R and RNA-sequencing analysis using DESeq2. Gene set enrichment analysis was performed using the fgsea package with genesets extracted from the msigdbr package. Single sample gene set enrichment analysis was performed using the gsva package. Figures were generated using ggplot2 and tidyhetamps packages.

[7] = system: mice transplanted with Dre-electroporated Ubc:CreER-Jak2^RL bone marrow exhibiting MPN; test: Jak2^RL knock-in/knock-out competitive transplant, tamoxifen-induced Jak2^V617F deletion; format: in vivo; conditions: within 3-6 weeks following tamoxifen treatment, vs MPN control
Text: as §1

[8] = system: Cre-negative Jak2^RL MPN bone marrow cells; conditions: mouse, in vivo
Description: FIGS. 9D-9E show total bone marrow (BM) cellularity (femur) (FIG. 9D) and Myeloid progenitor (Lineage−cKit+Sca1−) (FIG. 9E) frequencies of MPN (CTRL) vs. tamoxifen (TAM) treated mice transplanted with Cre-negative JAK2^RL knock-in cells in competition with CD45.1 support at timed sacrifice 15 weeks (n=3-4 each; mean±s.e.m).
Jak2^RL and Jak2^RL/Tet2^f/f lines were crossed to UbcCreER tamoxifen-inducible Cre lines and RLTG dual-recombinase reporter lines.^17,24 Primary recipient mice transplanted with Dre mRNA-recombined UbcCreER-Jak2^RL or UbcCreER-Jak2^RL/Tet2^f/f bone marrow cells were bled every 3-4 weeks post-transplant to monitor disease status. Peripheral blood was isolated by submandibular bleeds. Complete blood counts were assessed on a ProCyte Dx (IDEXX Laboratories, Westbrook, ME) per manufacturer's instruction. […] To induce Cre and delete Jak2^V617F, mice were treated with tamoxifen (TAM; purchased from MedChemExpress) 100 mg/kg daily (dissolved in corn oil) by oral gavage ×4 followed by 14 days of TAM chow approx. 80 mg/kg daily (ENVIGO). […] For terminal tissue isolation, mice were euthanized with CO2 asphyxiation, and tissues were dissected and fixed with 4% paraformaldehyde for histopathological analysis. […] Bone marrow cell numbers were determined via an automatic cell counter (ViCell Blu, Beckman Coulter). […]

[9] = system: Jak2^V617F/Tet2^f/f mutant cells; test: Jak2^V617F/Tet2^f/f competitive transplant, tamoxifen at 9 weeks post-transplant; format: in vivo, mice; conditions: double-mutant cells
Text: Dre mRNA was purchased from TriLink Biotechnologies (San Diego, CA) and electroporation carried out using the Neon Transfection System (ThermoScientific) per the manufacturer's protocol. Specifically, bone marrow donor cells were isolated from limb bones into PBS (pH 7.2) containing 2% fetal calf serum via centrifugation. After red blood cell lysis, single-cell suspensions were depleted of lineage-committed hematopoietic cells using a Lineage Cell Depletion Kit according to manufacturer's protocol (EasySep™, StemCell Technologies, Inc.). 2.5-3.0×10^6 lineage-depleted bone marrow was then washed in PBS and then resuspended in 135 uL Buffer T to which 15 μL of Dre mRNA (at 1 μg/μL) was quickly added and electroporated at the following conditions: 1700V for 20 ms×1 pulse. The cells were then pipetted into penicillin-streptomycin free StemSpan SFEM medium with thrombopoietin (TPO; 20 ng/mL; PeproTech) and stem cell factor (SCF; 20 ng/mL; PeproTech), cultured for two hours, and then subsequently harvested and washed/resuspended in phosphate buffered saline (PBS) and transplanted via lateral tail vein injection into lethally irradiated (900cGy) 6-8 week old C57BL/6J recipient mice at approximately 4×10^5 cells per recipient along with 50,000 un-electroporated whole bone marrow support cells. […]

[10] = system: mutant Npm1 GOLDI-Lox Nras^G12D disease; test: bone marrow transplant of Dre-induced mutant Npm1 GOLDI-Lox / Nras^G12D, TAM vs vehicle; format: in vivo; conditions: compared to vehicle treated mice
Description: FIGS. 30A-30D show the development of a GOLDI-Lox On/Off Dre/Cre Npm1 Mouse.
A bone marrow transplant of a Dre-induced mutant Npm1 GOLDI-Lox expressing a co-mutant Nras^G12D allele immediately after Dre induction was performed, and mice were monitored for disease development (FIG. 30D, left panel). Upon development of disease, a cohort (n=5) of mice was treated with tamoxifen (TAM) to induce Cre and lead to reversion of the mutant Npm1 allele back to WT Npm1.

[11] = system: Npm1^c-Lox-Flt3^GL-ITD leukemia; test: long term TAM treatment of mice engrafted with Npm1^Lox-C Flt3^GL-ITD leukemia; format: in vivo; conditions: TAM-chow diet
Text: FIGS. 19A-19H show reversible Flt3 mutagenesis in acute myeloid leukemia. Secondary transplant of Npm1^Lox-C Flt3^GL-ITD (20,000 cells) or Idh2^Lox-R140Q Flt3^GL-ITD (500,000) from FIGS. 18A-18E were engrafted into lethally irradiated secondary recipients with 500,000 CD45.1 WT cells. […]

[12] = system: FlpoDHFR in Npm1^Frt-C Flt3^Frt-ITD bone marrow; conditions: FlpoDHFR delivered as a retrovirus in a transplant model
Description: as §2, §3

4-hydroxytamoxifen [4-OHT]
cell number, Ubc:CreERT2 Npm1^c-Lox-Flt3^GL-ITD cells [1]: reduction in cell number | cell number, FlpoERT2 Npm1^c-Frt Flt3^Frt-ITD cells ([1]; control without Cre-deletable allele): not | cell number, Cre+; Npm1GL cells [2]: significant loss of cells | cell number, Cre-; Npm1GL control cells ([2]; negative control): not observed

CC(=O)Nc1cc(Oc2ccc3c(nc(Nc4ccc(F)cc4F)n3C)c2C)ccn1 [CHZ868]
MEP, GMP, and LSK mutant allele burden ([3]; compared to vehicle/ruxolitinib-treated mice, not to the extent seen with Jak2^V617F deletion): Significant reductions | Hct [3]: 50.3% | spleen weights (mean) [3]: 76 mg

C=C[C@@H]1C[C@]1(NC(=O)[C@@H]1C[C@@H](Oc2ncc(OC)c3ccc(Cl)cc23)CN1C(=O)[C@@H](NC(=O)OC(C)(C)C)C(C)(C)C)C(=O)NS(=O)(=O)C1CC1 [asunaprevir]
recombination upon inhibition of NS3 proteolytic activity [4]: efficient recombination

C=C[C@@H]1C[C@]1(NC(=O)[C@@H]1C[C@@H]2CN1C(=O)[C@H](C(C)(C)C)NC(=O)O[C@@H]1C[C@H]1CCCCCc1nc3ccc(OC)cc3nc1O2)C(=O)NS(=O)(=O)C1CC1.O [grazoprevir]
recombination upon inhibition of NS3 proteolytic activity [4]: efficient recombination | peripheral blood counts with GZV treatment, CAG:DreStaPL-ODC mice [5]: monocytosis, mild anemia and mild thrombocytopenia | peripheral blood counts with GZV treatment, Vav1:DreStaPL-ODC mice [5]: no significant differences

N#CC[C@H](C1CCCC1)n1cc(-c2ncnc3[nH]ccc23)cn1 [ruxolitinib]
GMP frequency [6]: 6.66% | MEP frequency [6]: 35.3% | CD45.2 chimerism in peripheral blood [3]: 37.7% | mutant cell fraction in LSK stem-cell enriched population (mean) [3]: 87.6% | Hct [3]: 85.8% | spleen weights (mean) [3]: 235 mg | expression of Ybx1, Rel. exp (Ybx1): 2.52 | down-regulation of STAT5 target gene expression, NES (Jak2^V617F LSKs and MEPs; GSEA of RNA-seq): −0.913 | erythroid pathway gene expression (heme metabolism), NES (Jak2^V617F LSKs and MEPs; GSEA of RNA-seq, LSKs): 1.45

CC/C(=C(\c1ccccc1)c1ccc(OCCN(C)C)cc1)c1ccccc1 [tamoxifen]
GMP frequency [6]: 20.1% | MEP frequency [6]: 14.2% | WBC (mean) [7]: 7.59 K/uL | hematocrit (mean) [7]: 41.6% | platelet (mean) [7]: 749 K/uL | phenotypes observed with Ubc:CreER-Jak2^V617F deletion, with tamoxifen in the absence of Jak2^V617F reversal [8]: not observed | CD45.2 chimerism in peripheral blood [3]: 17.3% | mutant cell fraction in LSK stem-cell enriched population (mean) [3]: 28.7% | spleen weights (mean) [3]: 125 mg | hematologic parameters [9]: normalization | peripheral blood mutant cell fraction [9]: reductions | expression of Ybx1, Rel. exp (Ybx1): 0.42 | WBC counts [10]: significant decrease | cKIT+ cells in the peripheral blood [10]: significant decrease | survival [10]: no significant difference | overall survival [11]: increase in overall survival | down-regulation of STAT5 target gene expression, NES (Jak2^V617F LSKs and MEPs; GSEA of RNA-seq): −1.51 | MAPK activity by RNA-Seq, NES (Jak2^V617F LSKs and MEPs; GSEA of down regulation of KRAS signaling targets, MEPs, vs vehicle): 1.35

COc1cc(Cc2cnc(N)nc2N)cc(OC)c1OC [trimethoprim]
disease induction in the Flp Flt3/Npm1 model [12]: capable of inducing aggressive AML

— US20250304933A1, “INDUCIBLE RECOMBINASE SYSTEMS” (priority 2022, published 2025)
